Reference: ChEMBL document CHEMBL4251615, “Discovery of anilino-furo[2,3-d]pyrimidine derivatives as dual inhibitors of EGFR/HER2 tyrosine kinase and their anticancer activity” (Eur J Med Chem, 2018)

What was measured:
Assay type in all cases: functional
[1] = test system: UO-31; test: Growth inhibition of human UO31 cells assessed as cell growth at 10 uM incubated for 48 hrs by sulforhodamine B assay relative to control; conditions: UO-31, 48 h, read-out: Activity
[2] = test system: RXF 393; test: Growth inhibition of human RXF393 cells assessed as cell growth at 10 uM incubated for 48 hrs by sulforhodamine B assay relative to control; conditions: RXF 393, 48 h, read-out: Activity
[3] = test system: NCI-H23; test: Growth inhibition of human NCI-H23 cells assessed as cell growth at 10 uM incubated for 48 hrs by sulforhodamine B assay relative to control; conditions: NCI-H23, 48 h, read-out: Activity
[4] = test system: CAKI-1; test: Growth inhibition of human Caki1 cells assessed as cell growth at 10 uM incubated for 48 hrs by sulforhodamine B assay relative to control; conditions: CAKI-1, 48 h, read-out: Activity
[5] = test system: SK-MEL-28; test: Growth inhibition of human SK-MEL-28 cells assessed as cell growth at 10 uM incubated for 48 hrs by sulforhodamine B assay relative to control; conditions: SK-MEL-28, 48 h, read-out: Activity
[6] = test system: OVCAR-5; test: Growth inhibition of human OVCAR5 cells assessed as cell growth at 10 uM incubated for 48 hrs by sulforhodamine B assay relative to control; conditions: OVCAR-5, 48 h, read-out: Activity
[7] = test system: EKVX; test: Growth inhibition of human EKVX cells assessed as cell growth at 10 uM incubated for 48 hrs by sulforhodamine B assay relative to control; conditions: read-out: Activity
[8] = test system: CCRF-CEM; test: Growth inhibition of human CCRF-CEM cells assessed as cell growth at 10 uM incubated for 48 hrs by sulforhodamine B assay relative to control; conditions: read-out: Activity
[9] = test system: OVCAR-4; test: Growth inhibition of human OVCAR4 cells assessed as cell growth at 10 uM incubated for 48 hrs by sulforhodamine B assay relative to control; conditions: OVCAR-4, 48 h, read-out: Activity
[10] = test system: SF-539; test: Growth inhibition of human SF539 cells assessed as cell growth at 10 uM incubated for 48 hrs by sulforhodamine B assay relative to control; conditions: SF-539, 48 h, read-out: Activity
[11] = test system: T47D; test: Growth inhibition of human T47D cells assessed as cell growth at 10 uM incubated for 48 hrs by sulforhodamine B assay relative to control; conditions: read-out: Activity
[12] = test system: HOP-62; test: Growth inhibition of human HOP62 cells assessed as cell growth at 10 uM incubated for 48 hrs by sulforhodamine B assay relative to control; conditions: HOP-62, 48 h, read-out: Activity
[13] = test system: MDA-MB-435; test: Growth inhibition of human MDA-MB-435 cells assessed as cell growth at 10 uM incubated for 48 hrs by sulforhodamine B assay relative to control; conditions: MDA-MB-435, 48 h, read-out: Activity
[14] = test system: 786-0; test: Growth inhibition of human 786-0 cells assessed as cell growth at 10 uM incubated for 48 hrs by sulforhodamine B assay relative to control; conditions: 786-0, 48 h, read-out: Activity
[15] = test system: MCF7; test: Growth inhibition of human MCF7 cells assessed as cell growth at 10 uM incubated for 48 hrs by sulforhodamine B assay relative to control; conditions: MCF7, 48 h, read-out: Activity
[16] = test system: HCT-15; test: Growth inhibition of human HCT15 cells assessed as cell growth at 10 uM incubated for 48 hrs by sulforhodamine B assay relative to control; conditions: HCT-15, 48 h, read-out: Activity
[17] = test system: COLO 205; test: Growth inhibition of human COLO205 cells assessed as cell growth at 10 uM incubated for 48 hrs by sulforhodamine B assay relative to control; conditions: COLO 205, 48 h, read-out: Activity
[18] = test system: A549; test: Growth inhibition of human A549/ATCC cells assessed as cell growth at 10 uM incubated for 48 hrs by sulforhodamine B assay relative to control; conditions: A549, 48 h, read-out: Activity
[19] = test system: K562; test: Growth inhibition of human K562 cells assessed as cell growth at 10 uM incubated for 48 hrs by sulforhodamine B assay relative to control; conditions: K562, 48 h, read-out: Activity
[20] = test system: NCI/ADR-RES; test: Growth inhibition of human NCI/ADR-RES cells assessed as cell growth at 10 uM incubated for 48 hrs by sulforhodamine B assay relative to control; conditions: read-out: Activity
[21] = test system: SR; test: Growth inhibition of human SR cells assessed as cell growth at 10 uM incubated for 48 hrs by sulforhodamine B assay relative to control; conditions: read-out: Activity
[22] = test system: PC-3; test: Growth inhibition of human PC3 cells assessed as cell growth at 10 uM incubated for 48 hrs by sulforhodamine B assay relative to control; conditions: PC-3, 48 h, read-out: Activity
[23] = test system: SW-620; test: Growth inhibition of human SW620 cells assessed as cell growth at 10 uM incubated for 48 hrs by sulforhodamine B assay relative to control; conditions: SW-620, 48 h, read-out: Activity
[24] = test system: SK-MEL-5; test: Growth inhibition of human SK-MEL-5 cells assessed as cell growth at 10 uM incubated for 48 hrs by sulforhodamine B assay relative to control; conditions: SK-MEL-5, 48 h, read-out: Activity
[25] = test system: RPMI-8226; test: Growth inhibition of human RPMI8226 cells assessed as cell growth at 10 uM incubated for 48 hrs by sulforhodamine B assay relative to control; conditions: RPMI-8226, 48 h, read-out: Activity
[26] = test system: SF-268; test: Growth inhibition of human SF268 cells assessed as cell growth at 10 uM incubated for 48 hrs by sulforhodamine B assay relative to control; conditions: SF-268, 48 h, read-out: Activity
[27] = test system: MOLT-4; test: Growth inhibition of human MOLT4 cells assessed as cell growth at 10 uM incubated for 48 hrs by sulforhodamine B assay relative to control; conditions: MOLT-4, 48 h, read-out: Activity
[28] = test system: NCI-H522; test: Growth inhibition of human NCI-H522 cells assessed as cell growth at 10 uM incubated for 48 hrs by sulforhodamine B assay relative to control; conditions: NCI-H522, 48 h, read-out: Activity
[29] = test system: Malme-3M; test: Growth inhibition of human MALME-3M cells assessed as cell growth at 10 uM incubated for 48 hrs by sulforhodamine B assay relative to control; conditions: read-out: Activity
[30] = test system: SNB-19; test: Growth inhibition of human SNB19 cells assessed as cell growth at 10 uM incubated for 48 hrs by sulforhodamine B assay relative to control; conditions: SNB-19, 48 h, read-out: Activity
[31] = test system: LOX IMVI; test: Growth inhibition of human LOXIMVI cells assessed as cell growth at 10 uM incubated for 48 hrs by sulforhodamine B assay relative to control; conditions: read-out: Activity
[32] = test system: SF-295; test: Growth inhibition of human SF295 cells assessed as cell growth at 10 uM incubated for 48 hrs by sulforhodamine B assay relative to control; conditions: SF-295, 48 h, read-out: Activity
[33] = test system: OVCAR-3; test: Growth inhibition of human OVCAR3 cells assessed as cell growth at 10 uM incubated for 48 hrs by sulforhodamine B assay relative to control; conditions: OVCAR-3, 48 h, read-out: Activity

Compound | growth at 10 µM [1] [%] | growth at 10 µM [2] [%] | growth at 10 µM [3] [%] | growth at 10 µM [4] [%] | growth at 10 µM [5] [%] | growth at 10 µM [6] [%] | growth at 10 µM [7] [%] | growth at 10 µM [8] [%] | growth at 10 µM [9] [%] | growth at 10 µM [10] [%] | growth at 10 µM [11] [%] | growth at 10 µM [12] [%] | growth at 10 µM [13] [%] | growth at 10 µM [14] [%] | growth at 10 µM [15] [%] | growth at 10 µM [16] [%] | growth at 10 µM [17] [%] | growth at 10 µM [18] [%] | growth at 10 µM [19] [%] | growth at 10 µM [20] [%] | also measured
CCOC(=O)c1c(C)oc2ncnc(Nc3ccc(OCc4cccc(C)c4)cc3)c12 | 101 | 111 | 94.9 | 95.6 | 101 | 107 | 94.5 | 107 | 105 | 95.4 | 87.3 | 101 | 104 | 103 | 99.2 | 99.5 | 100 | 88.9 | 98 | 97 | growth at 10 µM [21]: 116%; growth at 10 µM [22]: 93.4%; growth at 10 µM [23]: 101%; growth at 10 µM [24]: 99.2%; growth at 10 µM [25]: 117%; growth at 10 µM [26]: 106%; growth at 10 µM [27]: 115%; growth at 10 µM [28]: 81%; growth at 10 µM [29]: 126%; growth at 10 µM [30]: 99.7%; growth at 10 µM [31]: 91.8%; growth at 10 µM [32]: 101%; growth at 10 µM [33]: 117%
CCOC(=O)c1c(C)oc2ncnc(Nc3ccc(OCc4ccc(Cl)c(Cl)c4)cc3)c12 | 98.4 | 101 | 95.8 | 96.1 | 102 | 95 | 102 | 110 | 121 | 98.4 | 90.1 | 101 | 111 | 94.3 | 106 | 104 | 111 | 95.8 | 93.8 | 103 | growth at 10 µM [21]: 90%; growth at 10 µM [22]: 103%; growth at 10 µM [23]: 105%; growth at 10 µM [24]: 103%; growth at 10 µM [25]: 117%; growth at 10 µM [26]: 104%; growth at 10 µM [27]: 105%; growth at 10 µM [28]: 91%; growth at 10 µM [29]: 131%; growth at 10 µM [30]: 103%; growth at 10 µM [31]: 95.1%; growth at 10 µM [32]: 94.7%; growth at 10 µM [33]: 118%
CCOC(=O)c1c(C)oc2ncnc(Nc3ccc(OCc4cccc(F)c4)cc3)c12 | 85 | 116 | 91.8 | 80.1 | 96.9 | 94 | 94.4 | 91.2 | 102 | 94.4 | 91 | 87.8 | 103 | 86.1 | 99.3 | 98.5 | 84.2 | 76.4 | 107 | 86.2 | growth at 10 µM [21]: 104%; growth at 10 µM [22]: 75%; growth at 10 µM [23]: 88.9%; growth at 10 µM [24]: 93.4%; growth at 10 µM [25]: 104%; growth at 10 µM [26]: 98.8%; growth at 10 µM [27]: 107%; growth at 10 µM [28]: 85%; growth at 10 µM [29]: 125%; growth at 10 µM [30]: 99.5%; growth at 10 µM [31]: 85.3%; growth at 10 µM [32]: 82.7%; growth at 10 µM [33]: 104%
